Data as given in ChEMBL document CHEMBL5137070, “N-2-(Phenylamino) Benzamide Derivatives as Dual Inhibitors of COX-2 and Topo I Deter Gastrointestinal Cancers via Targeting Inflammation and Tumor Progression” (J Med Chem, 2022).
pIC50: −log10 of the molar value. Activity calls are given as the source filed them. The rule behind the calls is not given here.

Tests used:
[1] = test system: RKO; assay: Effect on cell morphology in human RKO cells assessed as lose of adherence at 10 uM incubated for 48 hrs by giemsa staining based microscopic analysis; format: functional
[2] = test system: CT26.WT; assay: Antiproliferative activity against mouse CT26.WT cells assessed as cell viability at 1.11 uM for 48 hrs by MTT assay; format: functional; conditions: read-out: Activity
[3] = test system: RKO; assay: Anti-migration activity against human RKO cells assessed as decrease in cell migration rate at 0.37 uM for 48 hrs by crystalline violet staining based assay; format: functional
[4] = test system: CT26.WT; assay: Antiproliferative activity against mouse CT26.WT cells assessed as reduction in cell proliferation incubated for 48 hrs by MTT assay; format: functional, cell-based
[5] = test system: HT-29; assay: Antiproliferative activity against human HT-29 cells assessed as reduction in cell proliferation incubated for 48 hrs by MTT assay; format: functional, cell-based; conditions: HT-29, 48 h
[6] = test system: HGC-27; assay: Effect on cell morphology in human HGC-27 cells assessed as condensed morphology at 10 uM incubated for 48 hrs by giemsa staining based microscopic analysis; format: functional
[7] = test system: HGC-27; assay: Antiproliferative activity against human HGC-27 cells assessed as reduction in cell proliferation incubated for 48 hrs by MTT assay; format: functional, cell-based; conditions: HGC-27, 48 h
[8] = test system: RKO; assay: Antiproliferative activity against human RKO cells assessed as clone formation at 0.04 to 3.3 uM incubated for 4 days by crystal violet staining based analysis; format: functional, cell-based; conditions: dose 0.04-3.3 µM, time 4.0 day
[9] = test system: RAW264.7; assay: Inhibition of LPS induced NO production in mouse RAW264.7 cells at 6.6 uM incubated for 1 hrs followed by LPS stimulation and measured after 24 hrs by Griess reagent based assay; format: functional, cell-based; conditions: time 25.0 hrs
[10] = test system: RKO; assay: Effect on cell morphology in human RKO cells assessed as appearance of smaller cells at 10 uM incubated for 48 hrs by giemsa staining based microscopic analysis; format: functional
[11] = test system: RAW264.7; assay: Antiinflammatory activity against LPS-stimulated mouse RAW264.7 cells assessed decrease in IL-1beta release at 6.6 uM incubated for 1 hrs followed by LPS stimulation and measured after 24 hrs by ELISA relative to control; format: functional, cell-based; conditions: time 25.0 hrs
[12] = test system: RKO; assay: Induction of apoptosis in human RKO cells at 1.1 to 10 uM for 24 hrs by Annexin V-FITC/PI staining based flow cytometry; format: functional, cell-based; conditions: dose 1.1-10 µM
[13] = test system: RKO; assay: Effect on cell morphology in human RKO cells assessed as condensed morphology at 10 uM incubated for 48 hrs by giemsa staining based microscopic analysis; format: functional
[14] = biological target: T1, DNA topoisomerase 1 (Homo sapiens) (UniProt P11387); assay: Inhibition of human topoisomerase I assessed as DNA unwinding using DNA pBR322 as substrate at 2 uM incubated for 30 mins by ethidium bromide staining based agarose gel electrophoresis
T1 sequence (whole entry): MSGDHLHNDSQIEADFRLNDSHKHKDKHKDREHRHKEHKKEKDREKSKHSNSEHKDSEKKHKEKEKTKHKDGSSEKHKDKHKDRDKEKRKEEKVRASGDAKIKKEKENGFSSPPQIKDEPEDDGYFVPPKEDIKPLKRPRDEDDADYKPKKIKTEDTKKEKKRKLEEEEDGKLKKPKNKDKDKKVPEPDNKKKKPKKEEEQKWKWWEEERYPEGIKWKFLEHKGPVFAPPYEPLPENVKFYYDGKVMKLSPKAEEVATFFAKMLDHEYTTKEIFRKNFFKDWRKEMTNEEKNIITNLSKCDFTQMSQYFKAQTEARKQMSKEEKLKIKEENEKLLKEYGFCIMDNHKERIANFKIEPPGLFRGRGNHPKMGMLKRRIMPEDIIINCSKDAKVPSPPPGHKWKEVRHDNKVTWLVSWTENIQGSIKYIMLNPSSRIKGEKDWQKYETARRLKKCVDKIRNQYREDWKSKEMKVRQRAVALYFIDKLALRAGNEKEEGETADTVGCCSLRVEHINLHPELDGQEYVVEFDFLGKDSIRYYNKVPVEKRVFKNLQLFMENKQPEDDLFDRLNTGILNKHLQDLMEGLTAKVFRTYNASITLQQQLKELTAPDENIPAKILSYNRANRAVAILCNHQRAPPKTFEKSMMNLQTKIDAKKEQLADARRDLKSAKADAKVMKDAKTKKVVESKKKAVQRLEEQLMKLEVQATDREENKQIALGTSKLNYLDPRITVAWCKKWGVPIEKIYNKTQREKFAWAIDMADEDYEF

[15] = test system: SGC-7901; assay: Antiproliferative activity against human SGC-7901 cells assessed as reduction in cell proliferation incubated for 48 hrs by MTT assay; format: functional, cell-based; conditions: SGC-7901, 48 h
[16] = test system: RKO; assay: Effect on cell morphology in human RKO cells assessed as contracted nucleus at 10 uM incubated for 48 hrs by giemsa staining based microscopic analysis; format: functional
[17] = test system: RKO; assay: Anti-migration activity against human RKO cells assessed as inhibition of cell migration at 0.37 uM and measured after 24 hrs by wound healing assay; format: functional, cell-based
[18] = test system: HGC-27; assay: Effect on cell morphology in human HGC-27 cells assessed as contracted nucleus at 10 uM incubated for 48 hrs by giemsa staining based microscopic analysis; format: functional
[19] = test system: HGC-27; assay: Antiproliferative activity against human HGC-27 cells assessed as clone formation at 0.37 to 3.3 uM incubated for 4 days by crystal violet staining based analysis; format: functional, cell-based; conditions: dose 0.37-3.3 µM, time 4.0 day
[20] = test system: HGC-27; assay: Effect on cell morphology in human HGC-27 cells assessed as lose of adherence at 10 uM incubated for 48 hrs by giemsa staining based microscopic analysis; format: functional
[21] = test system: RKO; assay: Induction of mitochondrial membrane loss in human RKO at 1.1 to 10 uM and measured after 36 hrs by TMRE dye based flow cytometry; format: functional, cell-based; conditions: dose 1.1-10 µM, DDE = dose-dependent effect
[22] = biological target: T2, DNA topoisomerase 1 (Homo sapiens, UniProt P11387); assay: Inhibition of human topoisomerase I assessed as DNA relaxation using DNA pBR322 as substrate incubated for 30 mins by ethidium bromide staining based agarose gel electrophoresis
T2 sequence (P11387 whole entry): T1 sequence (whole entry)

[23] = test system: HGC-27; assay: Induction of apoptosis in human HGC-27 cells at 1.1 to 10 uM for 24 hrs by Annexin V-FITC/PI staining based flow cytometry; format: functional, cell-based; conditions: dose 1.1-10 µM
[24] = test system: HGC-27; assay: Effect on cell morphology in human HGC-27 cells assessed as appearance of round cells at 10 uM incubated for 48 hrs by giemsa staining based microscopic analysis; format: functional
[25] = test system: HGC-27; assay: Effect on cell morphology in human HGC-27 cells assessed as appearance of smaller cells at 10 uM incubated for 48 hrs by giemsa staining based microscopic analysis; format: functional
[26] = test system: HGC-27; assay: Antiproliferative activity against human HGC-27 cells assessed as cell viability at <= 0.41 uM for 48 hrs by MTT assay; format: functional; conditions: up to 0.41 µM
[27] = test system: RKO; assay: Effect on cell morphology in human RKO cells assessed as appearance of round cells at 10 uM incubated for 48 hrs by giemsa staining based microscopic analysis; format: functional
[28] = test system: HGC-27; assay: Induction of mitochondrial membrane loss in human HGC-27 at 1.1 to 10 uM and measured after 36 hrs by TMRE dye based flow cytometry; format: functional, cell-based; conditions: dose 1.1-10 µM, DDE = dose-dependent effect
[29] = test system: RKO; assay: Antiproliferative activity against human RKO cells assessed as reduction in cell proliferation incubated for 48 hrs by MTT assay; format: functional, cell-based
[30] = test system: RAW264.7; assay: Cytotoxicity against mouse RAW264.7 cells assessed as reduction in cell viability at <=11.11 for 24 hrs by MTT assay; format: toxicity, cell-based; conditions: raw264.7, 24 h
[31] = test system: HGC-27; assay: Anti-migration activity against human HGC-27 cells assessed as decrease in cell migration rate at 0.37 uM for 48 hrs by crystalline violet staining based assay; format: functional
[32] = test system: RAW264.7; assay: Antiinflammatory activity in mouse RAW264.7 cells assessed as reduction in LPS-induced COX-2 expression at 6.6 uM incubated for 1 hrs followed by LPS stimulation and measured after 24 hrs by western blot analysis; format: functional, cell-based; conditions: time 25.0 hrs
[33] = test system: RKO; assay: Induction of cell cycle arrest in human RKO cells assessed as accumulation at G2/M phase at 3.3 to 10 uM for 24 hrs by propidium iodide staining based flow cytometry; format: functional; conditions: dose 3.3-10 µM
[34] = test system: RKO; assay: Antiproliferative activity against human RKO cells assessed as cell viability at <= 0.41 uM for 48 hrs by MTT assay; format: functional; conditions: up to 0.41 µM
[35] = test system: HGC-27; assay: Induction of cell cycle arrest in human HGC-27 cells assessed as accumulation at G2/M phase at 3.3 to 10 uM for 24 hrs by propidium iodide staining based flow cytometry; format: functional; conditions: dose 3.3-10 µM

Compound: Cc1c(Cl)cccc1Nc1ccc(F)cc1C(=O)NCc1ccc(O)c(F)c1
- Activity [1]: Active
- viability at 1.11 µM [2]: > 80%
- Activity [3]: Active
- pIC50 [4]: 5.05
- pIC50 [5]: 4.80
- Activity [6]: Active
- pIC50 [7]: 5.14
- Activity [8]: Active
- inhibition [9]: Active
- Activity [10]: Active
- Activity [11]: Active
- Activity [12]: Active
- Activity [13]: Active
- inhibition [14]: 41.1%
- pIC50 [15]: 4.84
- Activity [16]: Active
- Activity [17]: Active
- Activity [18]: Active
- Activity [19]: Active
- Activity [20]: Active
- Activity [21]: Dde
- pIC50 [22]: 5.32
- Activity [23]: Active
- Activity [24]: Active
- Activity [25]: Active
- Activity [26]: >80%
- Activity [27]: Active
- Activity [28]: Dde
- pIC50 [29]: 5.17
- Activity [30]: > 80%
- Activity [31]: Active
- Activity [32]: Active
- Activity [33]: Active
- Activity [34]: >80%
- Activity [35]: Active
